# Measurements as given in patent US8282688B2, “Laccase mediators and methods of use” (Danisco US Inc., priority 2006, dated 2012).
# Columns and labels:
# C. unicolor laccase = experiment: Stability of mediators in the presence of C. unicolor laccase, LC/MS of supernatant (Example 6); format: physicochemical; conditions: for Initial Peak Area / Final Peak Area: LC/MS; for Initial Peak Area: 1 mM standard solution of mediator; for Final Peak Area: supernatant after denim disk bleaching; for Final Peak Area / % Remaining: 2 hours at 50° C.; for % Remaining: supernatant after contact with laccase and denim
# Method: Aliquots of supernatant were analyzed by LC/MS following the denim disk bleaching protocol described in Example 5 in order to determine the final mediator concentrations in the supernatant following the 2 hour incubation period.
# Standard solutions of the mediators were prepared by dilution of the methanolic stock solutions (20 mM) into deionized water, such that the final concentrations were 1 mM respectively for each of the three mediators methyl syringate (MS), 4-cyano-2,6-dimethoxyphenol (SN) and, 4-carboxamido-2,6-dimethoxyphenol (SA). Samples were analyzed using a Thermo Finnegan Quantum TSQ LC/MS system (Thermo Finnegan, San Jose, Calif.) operating in positive electrospray ionization mode. The liquid chromatography conditions were as follows: • Column; Agilent Zorbax SB-Aq, 2.1 mm×100 mm, […] silica • Solvent A; 20 mM Ammonium formate, pH 5.0 • Solvent B; 90% Methanol+10% solvent A • Flow rate; 250 uL/min • Injection volume; 5 uL • Elution program; 70% solvent A from 0 to 1 minute, to 30% A from 3 to 4 minutes, back to 70% A at 4.5 minutes, held at 70% A until 8 minutes overall.
# The Mass spectrometry conditions were as follows: • Positive mode electrospray ionization (+ve ESI) in full scan mode, scanning from 175 to 240 Da in 0.5 seconds. • Spray voltage was 4200V, sheath gas flow rate 41 mL/min, aux gas flow rate at 15 mL/min. Tube lens voltage was 109V and capillary temperature was 270° C.
# [1] = test system: Cerrena unicolor Laccase (recombinant laccase D); experiment: Laccase bleaching of stonewashed denim legs, effect of temperature, Unimac, recombinant laccase D (Example 9); format: biochemical; conditions: laccase 0.05 g/l/0.4 U/ml, pH 6, 30 minutes
# Method: (§1) Denim, 12 legs weighing approximately 3 kg, was desized in a Unimac UF 50 washing machine under the following conditions: • Desizing for 15 minutes at 10:1 liquor ratio 50° C. with 0.5 g/l (15 g) of Optisize 160 amylase (Genencor) and 0.5 g/l (15 g) of a non-ionic surfactant (e.g. Rucogen BFA, (Rudolf Chemie) or Ultravon GPN, (Huntsman)) • 2 cold rinses for 5 minutes at 30:1 liquor ratio.
# (§2) Following desizing the denim was stonewashed in a Unimac UF 50 washing machine under the following conditions: • Cold rinse for 5 minutes at 10:1 liquor ratio • Stonewashing for 60 minutes at 10:1 liquor ratio 55° C. with 1 kg of pumice stone, citrate buffer (30 g tri-sodium citrate dihydrate and 30 g citric acid monohydrate) and 35 g IndiAge 2XL cellulase (Genencor). • 2 cold rinses for 5 minutes at 30:1 liquor ratio.
# (§3) Denim legs were evaluated with a Minolta Chromameter CR 310 in the CIE Lab color space with a D 65 light source. Measurements were done only after laccase treatment. For each denim leg 8 measurements are taken and the result of the 12 legs (96 measurements) was averaged.
# Laccase bleaching of stonewashed denim: Denim, 12 legs approximately 3 kg, was desized and stonewashed as described in example 8. After stonewashing a laccase treatment was done in a Unimac UF 50 washing machine according to the following process: • 30 minutes at 10:1 liquor ratio, • pH 6 (21 g monosodium phosphate and 5 g adipic acid, recombinant laccase D) or pH 4.8 (8.6 g monosodium phosphate and 16.8 g of adipic acid, Novoprime Base 268 laccase) • laccase (recombinant laccase D or Novoprime Base 268) • mediator (syringamide (SA) and syringonitrile (SN)) • After laccase treatment the denim use rinsed twice in cold water for 5 minutes at 30:1 liquor ratio.
# [2] = test system: Cerrena unicolor Laccase (recombinant laccase D); experiment: Laccase bleaching of stonewashed denim legs, laccase dose response, Unimac (Example 11); format: biochemical; conditions: pH 6, 60° C., 30 minutes
# Method: as §1, §2, §3
# Laccase bleaching of stonewashed denim—Denim, 12 legs weighing approximately 3 kg, was desized and stonewashed as described in Example 8. After stonewashing, a laccase treatment was done according to the following process: 30 minutes at 10:1 liquor ratio and pH 6 (21 g monosodium phosphate and 5 g adipic acid) and 60° C. with laccase and mediator. After laccase treatment the denim use rinsed twice in cold water for 5 minutes at 30:1 liquor ratio.
SMILES,Initial Peak Area (C. unicolor laccase),Final Peak Area (C. unicolor laccase),% Remaining (C. unicolor laccase),"Bleaching level (CIE L) ([1]; mediator 0.33 mM, 40 ° C.)","Bleaching level (CIE L) ([1]; mediator 0.33 mM, 60 ° C.)","Bleaching level (CIE L) ([2]; Syringamide 0.33 mM, Cerrena unicolor laccase 0.010 g/l)","Bleaching level (CIE L) ([2]; Syringamide 0.33 mM, Cerrena unicolor laccase 0.05 g/l)","Bleaching level (CIE L) ([2]; Syringamide 0.33 mM, Cerrena unicolor laccase 0.25 g/l)","Bleaching level (CIE L) ([1]; mediator 0.47 mM, 40 ° C.)","Bleaching level (CIE L) ([1]; mediator 0.47 mM, 60 ° C.)","Bleaching level (CIE L) ([2]; Syringonitrile 0.39 mM, Cerrena unicolor laccase 0.25 g/l)","Bleaching level (CIE L) ([2]; Syringonitrile 0.39 mM, Cerrena unicolor laccase 0.4 g/l)","Bleaching level (CIE L) ([2]; Syringonitrile 0.39 mM, Cerrena unicolor laccase 0.53 g/l)"
"COc1cc(C(N)=O)cc(OC)c1O [SA, 4-carboxamido-2,6-dimethoxyphenol]",122 × 10^7,0.94 × 10^7,7.8%,35.6,35.6,34.6,36.2,36.2,–,–,–,–,–
"COc1cc(C#N)cc(OC)c1O [SN, 4-cyano-2,6-dimethoxyphenol]",35.6 × 10^7,35.2 × 10^7,98.9%,–,–,–,–,–,35.7,35.9,37.7,39.5,38.8
